PubChem BioAssay AID588472 (The Scripps Research Institute Molecular Screening Center, 2011)

Columns and labels:
Assay in all cases: PubChem AID 588472
[1] = target: Protein-arginine deiminase type-2 (Homo sapiens) (UniProt Q9Y2J8); conditions: recombinant PAD1-4, colorimetric citrullination assay; PAD2
[2] = target: Protein-arginine deiminase type-3 (Homo sapiens) (UniProt Q9ULW8); conditions: recombinant PAD1-4, colorimetric citrullination assay; PAD3
[3] = target: Protein-arginine deiminase type-1 (Homo sapiens) (UniProt Q9ULC6); conditions: recombinant PAD1-4, colorimetric citrullination assay; PAD1
Protein-arginine deiminase type-1 (Homo sapiens), sequence (Q9ULC6 whole entry, looked up): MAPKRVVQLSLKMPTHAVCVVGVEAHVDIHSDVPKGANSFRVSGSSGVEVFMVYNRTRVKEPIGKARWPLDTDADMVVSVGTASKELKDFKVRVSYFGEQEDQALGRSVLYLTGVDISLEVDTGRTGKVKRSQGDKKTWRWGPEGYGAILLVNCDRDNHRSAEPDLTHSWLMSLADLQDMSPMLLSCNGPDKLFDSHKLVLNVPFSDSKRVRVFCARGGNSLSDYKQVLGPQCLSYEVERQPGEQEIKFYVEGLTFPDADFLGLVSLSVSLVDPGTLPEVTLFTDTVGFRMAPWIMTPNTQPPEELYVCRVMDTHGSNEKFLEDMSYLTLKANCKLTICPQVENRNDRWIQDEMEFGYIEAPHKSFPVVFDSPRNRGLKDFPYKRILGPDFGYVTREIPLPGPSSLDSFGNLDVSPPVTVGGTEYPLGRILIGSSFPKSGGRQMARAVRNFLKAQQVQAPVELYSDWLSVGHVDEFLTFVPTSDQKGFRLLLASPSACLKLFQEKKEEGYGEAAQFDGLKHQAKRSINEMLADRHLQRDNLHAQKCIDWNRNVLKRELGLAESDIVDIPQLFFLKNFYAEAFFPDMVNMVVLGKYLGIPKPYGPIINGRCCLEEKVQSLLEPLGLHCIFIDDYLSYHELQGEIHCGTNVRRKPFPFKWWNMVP

[4] = target: Protein-arginine deiminase type-4 (Homo sapiens) (UniProt Q9UM07); conditions: recombinant PAD1-4, colorimetric citrullination assay; PAD4
Protein-arginine deiminase type-4 (Homo sapiens), sequence (Q9UM07 whole entry, looked up): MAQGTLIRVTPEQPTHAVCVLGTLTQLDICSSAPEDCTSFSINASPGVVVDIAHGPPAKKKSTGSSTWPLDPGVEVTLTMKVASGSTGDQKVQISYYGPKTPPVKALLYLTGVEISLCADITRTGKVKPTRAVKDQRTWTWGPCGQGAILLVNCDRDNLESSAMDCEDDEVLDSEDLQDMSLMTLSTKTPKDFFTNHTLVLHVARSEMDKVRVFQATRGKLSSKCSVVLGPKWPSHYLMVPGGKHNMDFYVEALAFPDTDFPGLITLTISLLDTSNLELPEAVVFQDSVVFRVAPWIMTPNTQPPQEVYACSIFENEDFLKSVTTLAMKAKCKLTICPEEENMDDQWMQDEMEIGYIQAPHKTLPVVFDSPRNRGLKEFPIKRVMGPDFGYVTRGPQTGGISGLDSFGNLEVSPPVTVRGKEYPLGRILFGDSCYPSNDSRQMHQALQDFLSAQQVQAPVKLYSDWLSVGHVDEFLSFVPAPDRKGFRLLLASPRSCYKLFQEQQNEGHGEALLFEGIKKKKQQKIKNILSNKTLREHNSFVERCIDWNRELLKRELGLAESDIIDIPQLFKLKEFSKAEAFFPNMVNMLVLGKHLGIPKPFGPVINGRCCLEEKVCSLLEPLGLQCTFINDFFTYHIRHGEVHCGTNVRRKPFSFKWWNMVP

Protein-arginine deiminase type-3 (Homo sapiens), sequence (Q9ULW8 whole entry, looked up): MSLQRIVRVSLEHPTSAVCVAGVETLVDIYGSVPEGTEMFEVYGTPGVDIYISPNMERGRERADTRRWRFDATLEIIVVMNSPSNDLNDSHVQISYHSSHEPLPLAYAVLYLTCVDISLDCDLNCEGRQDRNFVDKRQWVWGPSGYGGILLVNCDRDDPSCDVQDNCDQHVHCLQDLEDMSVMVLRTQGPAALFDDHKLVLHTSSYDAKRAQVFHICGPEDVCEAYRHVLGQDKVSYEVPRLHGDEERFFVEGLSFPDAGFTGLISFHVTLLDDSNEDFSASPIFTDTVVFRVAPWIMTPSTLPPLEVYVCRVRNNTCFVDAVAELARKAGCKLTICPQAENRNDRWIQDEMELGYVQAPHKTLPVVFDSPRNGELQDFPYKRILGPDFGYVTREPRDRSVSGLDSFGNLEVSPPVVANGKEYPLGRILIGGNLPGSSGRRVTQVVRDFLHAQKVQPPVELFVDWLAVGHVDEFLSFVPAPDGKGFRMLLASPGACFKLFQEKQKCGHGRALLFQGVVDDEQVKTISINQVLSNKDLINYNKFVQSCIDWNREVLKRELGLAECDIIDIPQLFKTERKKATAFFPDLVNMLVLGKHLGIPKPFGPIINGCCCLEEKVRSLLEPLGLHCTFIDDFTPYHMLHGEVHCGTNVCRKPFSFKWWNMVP
Protein-arginine deiminase type-2 (Homo sapiens), sequence (Q9Y2J8 whole entry, looked up): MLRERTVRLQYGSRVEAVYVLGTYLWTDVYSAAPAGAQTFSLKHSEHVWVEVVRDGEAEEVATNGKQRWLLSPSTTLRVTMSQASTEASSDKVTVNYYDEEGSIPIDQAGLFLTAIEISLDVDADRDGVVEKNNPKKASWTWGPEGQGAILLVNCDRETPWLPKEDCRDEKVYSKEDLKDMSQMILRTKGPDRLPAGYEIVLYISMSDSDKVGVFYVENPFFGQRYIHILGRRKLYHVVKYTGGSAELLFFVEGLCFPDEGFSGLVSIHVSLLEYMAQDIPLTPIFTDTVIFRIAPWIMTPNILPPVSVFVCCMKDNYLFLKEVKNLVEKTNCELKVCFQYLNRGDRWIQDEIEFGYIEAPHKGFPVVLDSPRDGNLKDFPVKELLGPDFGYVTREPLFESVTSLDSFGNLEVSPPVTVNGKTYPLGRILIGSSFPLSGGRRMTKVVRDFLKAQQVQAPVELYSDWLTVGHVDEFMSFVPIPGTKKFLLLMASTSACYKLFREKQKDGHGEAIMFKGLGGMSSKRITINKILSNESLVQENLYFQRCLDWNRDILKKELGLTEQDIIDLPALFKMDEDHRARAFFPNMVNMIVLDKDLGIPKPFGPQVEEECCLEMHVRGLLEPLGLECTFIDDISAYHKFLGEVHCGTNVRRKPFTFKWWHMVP

IC50 [1]: 740 nM
IC50 [2]: 170 nM
IC50 [3]: 970 nM
IC50 [4]: 1000 nM
Structure (SMILES): NC1=CC(=O)c2cccnc2C1=O
